Assay results published in paper PMC10064822, “The importance of including the C-terminal domain of PTP1B1-400 to identify potential antidiabetic inhibitors” (Journal of Enzyme Inhibition and Medicinal Chemistry, 2023).
Like-named read-outs stand apart in the source and are kept apart here.

Experiments:
[1] = tested on: PTP1B1-321; details: cited from earlier work
[2] = molecular target: T1, hPTP1B1-400 (Homo sapiens, UniProt P18031); experiment: Enzyme kinetics of hPTP1B1-400 inhibition; type: biochemical; parameters: the three purified hPTP1B constructs (hPTP1B1-285, hPTP1B1-321, and hPTP1B1-400); His-tag (N); made in house; host or cells: E. coli BL21 (DE3); details: for Type of inhibition: hPTP1B1-400, pNPP 0.1-0.5 mM, best fit by R^2; for Vmax: fit of inhibition model
T1 sequence (P18031 1-400): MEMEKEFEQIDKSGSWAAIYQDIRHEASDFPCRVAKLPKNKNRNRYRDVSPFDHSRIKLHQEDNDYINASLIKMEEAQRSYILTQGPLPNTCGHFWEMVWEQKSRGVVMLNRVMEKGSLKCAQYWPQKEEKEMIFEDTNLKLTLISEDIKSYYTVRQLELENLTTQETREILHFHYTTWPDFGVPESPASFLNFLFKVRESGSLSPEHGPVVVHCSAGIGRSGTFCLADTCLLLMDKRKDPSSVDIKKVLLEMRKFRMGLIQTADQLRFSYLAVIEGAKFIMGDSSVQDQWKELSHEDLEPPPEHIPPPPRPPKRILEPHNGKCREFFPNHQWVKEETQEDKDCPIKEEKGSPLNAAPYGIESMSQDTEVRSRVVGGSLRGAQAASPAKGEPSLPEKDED
Experimental: The negative control was prepared with the enzyme and substrate in the absence of an inhibitor. The experiments were performed in triplicate. […] (2) y= Vmax x/Km + x,
Vmax is the maximum velocity, x is the […] concentration, and Km is the Michaelis constant.
(3) y= Vmax (x)/Km (1+(I/Ki))+x (4) y= Vmax (x)/((1+I)/(α Ki)) /x+Km ((1+I)/ Ki)/(1+I)/(α Ki)), (5) y= Vmax (x)/ x+(Km/(1+I)/Ki)
Vmax is the maximum velocity, x is the substrate concentration, I is the inhibitor concentration, Km is the Michaelis constant, Ki is the inhibition constant, and α=Vmax without inhibitor/Vmax with inhibitor.

[3] = tested on: PTP1B1-301; details: cited from earlier work
[4] = tested on: PTP1B1-298; details: cited from earlier work
[5] = tested on: PTP1B1-393; details: cited from earlier work
[6] = tested on: PTP1B1-405; details: cited from earlier work
[7] = tested on: PTP1B1-299; parameters: method as in PMID 15475571; details: PTP1B1-299 ref [20]; cited from earlier work
[8] = tested on: PTP1B1-400; details: cited from earlier work
[9] = molecular target: T2, hPTP1B1-285 (Homo sapiens, UniProt P18031); experiment: hPTP1B inhibition assay (pNPP), construct hPTP1B1-285; details: read-out: Km of the substrate (pNPP); hPTP1B1-285, no inhibitor
T2 sequence (P18031 1-285): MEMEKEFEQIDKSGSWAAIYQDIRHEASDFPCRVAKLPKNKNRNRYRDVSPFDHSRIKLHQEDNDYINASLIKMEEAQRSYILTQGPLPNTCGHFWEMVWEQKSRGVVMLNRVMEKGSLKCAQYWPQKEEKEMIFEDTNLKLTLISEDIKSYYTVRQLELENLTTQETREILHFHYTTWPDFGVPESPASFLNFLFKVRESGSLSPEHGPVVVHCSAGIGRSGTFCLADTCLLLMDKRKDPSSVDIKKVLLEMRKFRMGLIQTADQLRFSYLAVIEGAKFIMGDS

[10] = molecular target: T3, hPTP1B1-321 (Homo sapiens, UniProt P18031); experiment: hPTP1B inhibition assay (pNPP), construct hPTP1B1-321; details: read-out: Km of the substrate (pNPP); hPTP1B1-321, no inhibitor
T3 sequence (P18031 1-321): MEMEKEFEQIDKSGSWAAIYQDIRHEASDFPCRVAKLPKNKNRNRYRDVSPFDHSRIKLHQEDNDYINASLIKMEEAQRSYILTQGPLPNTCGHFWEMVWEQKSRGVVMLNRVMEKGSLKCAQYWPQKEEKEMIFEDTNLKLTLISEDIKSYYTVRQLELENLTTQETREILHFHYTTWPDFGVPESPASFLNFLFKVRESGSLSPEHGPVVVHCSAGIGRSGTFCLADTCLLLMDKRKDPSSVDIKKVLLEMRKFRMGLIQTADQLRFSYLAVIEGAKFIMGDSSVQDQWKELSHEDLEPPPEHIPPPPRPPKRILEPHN

[11] = molecular target: T1, hPTP1B1-400; experiment: hPTP1B inhibition assay (pNPP), construct hPTP1B1-400; details: read-out: Km of the substrate (pNPP); hPTP1B1-400, no inhibitor

2-(hydroxy-phenoxy) acetic acid
Inhibition type ([1]; PTP1B1-321 ref [38]): Competitive | Ki ([1]; PTP1B1-321 ref [38]): 9 µM

CC1CCC2(C(=O)O)CCC3(C)C(=CCC4C5(C)C(O)C(=O)C(O)C(C)(C)C5CCC43C)C2C1(C)O (stereo not drawn) [1β,3α,19α-trihydroxy-2-oxours-12-en-28-oic acid]
IC50 ([1]; PTP1B1-321 ref [49]): 13.2 µM | Inhibition type ([1]; PTP1B1-321 ref [49]): Non-competitive | Ki ([1]; PTP1B1-321 ref [49]): 10.8 µM

O=C(O)C(=O)Nc1ccccc1C(=O)O [2-(Oxaloamino) benzoic acid (OBA), 2-(oxaloamino) benzoic acid]
Inhibition type ([1]; PTP1B1-321 ref [37]): Competitive | Ki ([1]; PTP1B1-321 ref [37]): 200 µM

C[C@@H]1CC[C@]2(C(=O)O)CC[C@]3(C)C(=CC[C@@H]4[C@@]5(C)C[C@H](O)[C@H](O)C(C)(C)[C@@H]5CC[C@]43C)[C@@H]2[C@]1(C)O [2β-hydroxy pomolic acid]
IC50 ([1]; PTP1B1-321 ref [49]): 5.88 µM | Inhibition type ([1]; PTP1B1-321 ref [49]): Mixed-competitive | Ki ([1]; PTP1B1-321 ref [49]): 7.56 µM

COc1ccc(-n2ncc3c2C(C)(C)[C@@H]2CC[C@]4(C)[C@H](C(=O)C=C5[C@@H]6C[C@@](C)(C(=O)O)CC[C@]6(C)CC[C@]54C)[C@@]2(C)C3)cc1 [5 b]
Type of inhibition [2]: Uncompetitive | Ki ([2]; hPTP1B1-400, pNPP substrate): 3.42 ± 0.2 µM | Vmax ([2]; hPTP1B1-400, pNPP substrate): 0.87 ± 0.03

Oc1cc(Cc2cc(O)c(O)c(Br)c2Cc2cc(O)c(O)c(Br)c2Br)c(Br)c(Br)c1O [BDB, 3-bromo-4,5-bis(2,3-dibromo-4,5-dihydroxybenzyl)-1,2-benzenediol]
IC50 ([1]; PTP1B1-321 ref [21]): 1.86 µM | Inhibition type ([1]; PTP1B1-321 ref [21]): Competitive

O=C(/C=C/c1ccc(O)c(O)c1)O[C@@H]1C[C@](O)(C(=O)O)C[C@@H](O)[C@H]1O [CGA, chlorogenic acid]
Inhibition type ([3]; PTP1B1-301 ref [47]): Non-competitive | Ki ([3]; PTP1B1-301 ref [47]): 8.2 mM | IC50 ([1]; PTP1B1-321 ref [39]): 9.82 µM | Inhibition type ([1]; PTP1B1-321 ref [39]): Non-competitive

CC1=C(O)C(=O)C=C2C1=CC=C1[C@@]2(C)CC[C@@]2(C)[C@@H]3C[C@](C)(C(=O)O)CC[C@]3(C)CC[C@]12C [Celastrol]
IC50 ([4]; PTP1B1-298 ref [36]): 4.8 µM | Inhibition type ([4]; PTP1B1-298 ref [36]): Non-competitive | Kd ([4]; PTP1B1-298 ref [36]): 6.1 µM | IC50 ([5]; PTP1B1-393 ref [36]): 2100 nM | Inhibition type ([5]; PTP1B1-393 ref [36]): Non-competitive

O=C(/C=C/c1ccc(O)c(O)c1)O[C@@H](C(=O)O)[C@@H](OC(=O)/C=C/c1ccc(O)c(O)c1)C(=O)O [Cichoric acid (CHA), Cichoric acid]
Inhibition type ([3]; PTP1B1-301 ref [47]): Competitive | Ki ([3]; PTP1B1-301 ref [47]): 1.4 mM | Inhibition type ([1]; PTP1B1-321 ref [39]): Non-competitive

COC(=O)CC[C@@H](C)[C@H]1CC[C@H]2[C@@H]3[C@H](O)C[C@H]4C[C@H](NCCCCNCc5ccccn5)CC[C@]4(C)[C@H]3CC[C@]12C [DPM-1001]
IC50 ([6]; PTP1B1-405 ref [48]): 100 nM | Inhibition type ([6]; PTP1B1-405 ref [48]): Non-competitive | Kd ([6]; PTP1B1-405 ref [48]): 75 nM

Cc1cc(-c2c3ccccc3c(Br)c3sc(C)c(C)c23)cc(C)c1O[C@H](Cc1ccccc1)C(=O)O [Ertiprotafib]
IC50 [7]: > 20 µM | Inhibition type [7]: Nonclassic kinetics: Aggregation | Inhibition type ([3]; PTP1B1-301 ref [18]): Nonclassic kinetics: Aggregation | Inhibition type ([5]; PTP1B1-393 ref [18]): Nonclassic kinetics: Aggregation

[Na+].[Na+].[Na+].[O]=[V]([O-])([O-])[O-] [SO, sodium orthovanadate]
IC50 ([1]; PTP1B1-321 ref [39–42]): 1.38 µM | Inhibition type ([1]; PTP1B1-321 ref [39–42]): Competitive | Ki ([1]; PTP1B1-321 ref [39–42]): 0.38 µM | Type of inhibition [2]: Uncompetitive | Vmax ([2]; hPTP1B1-400, pNPP substrate): 3.20 ± 0.80

Cc1ccc(C(=O)Nc2ccc(S(=O)(=O)O)c3cc(S(=O)(=O)O)cc(S(=O)(=O)O)c23)cc1NC(=O)c1cccc(NC(=O)Nc2cccc(C(=O)Nc3cc(C(=O)Nc4ccc(S(=O)(=O)O)c5cc(S(=O)(=O)O)cc(S(=O)(=O)O)c45)ccc3C)c2)c1 [SUR, suramin]
IC50 ([1]; PTP1B1-321 ref [40], [50]): 11 µM | Inhibition type ([1]; PTP1B1-321 ref [40], [50]): Competitive | Ki ([1]; PTP1B1-321 ref [40], [50]): 4 µM | IC50 ([8]; PTP1B1-400 ref [28]): 4.1 µM | Inhibition type ([8]; PTP1B1-400 ref [28]): Competitive | Ki ([8]; PTP1B1-400 ref [28]): 7.1 µM | Type of inhibition [2]: Competitive | Vmax ([2]; hPTP1B1-400, pNPP substrate): 0.64 ± 0.02

CC(C)[C@@H](CC[C@@H](C)[C@H]1CC[C@H]2[C@@H]3[C@H](O)C[C@H]4C[C@@H](NCCCNCCCCNCCCN)CC[C@]4(C)[C@H]3CC[C@]12C)OS(=O)(=O)O [Trodusquemine]
Inhibition type ([1]; PTP1B1-321 ref [7]): Non-competitive | IC50 ([8]; PTP1B1-400 ref [43]): 1 µM | Inhibition type ([8]; PTP1B1-400 ref [43]): Non-competitive | Inhibition type ([6]; PTP1B1-405 ref [7]): Non-competitive

C[C@H]1[C@H](C)CC[C@]2(C(=O)O)CC[C@]3(C)C(=CC[C@@H]4[C@@]5(C)CC[C@H](O)C(C)(C)[C@@H]5CC[C@]43C)[C@H]12 [UA, ursolic acid]
IC50 ([4]; PTP1B1-298 ref [44]): 7.1 µM | Inhibition type ([4]; PTP1B1-298 ref [44]): Non-competitive | Ki ([4]; PTP1B1-298 ref [44]): 25.8 µM | IC50 ([1]; PTP1B1-321 ref [45]): 6.6 µM | Inhibition type ([1]; PTP1B1-321 ref [45]): Competitive | IC50 ([1]; PTP1B1-321 ref [46]): 3.08 µM | Inhibition type ([1]; PTP1B1-321 ref [46]): Competitive | IC50 ([8]; PTP1B1-400 ref [28]): 5.6 µM | Inhibition type ([8]; PTP1B1-400 ref [28]): Non-competitive | Ki ([8]; PTP1B1-400 ref [28]): 8.9 µM | Type of inhibition [2]: Mixed | Vmax ([2]; hPTP1B1-400, pNPP substrate): 0.63 ± 0.08

O=[N+]([O-])c1ccc(OP(=O)(O)O)cc1 [pNPP, p-nitrophenyl phosphate]
Km [9]: 16.4 ± 1.55 mM | Km [10]: 15.7 ± 1.68 mM | Km [11]: 2.03 ± 0.11 mM
